Assay results published in US20170022171A1, “2,5-DISUBSTITUTED CYCLOPENTANECARBOXYLIC ACIDS AND THEIR USE” (Bayer Pharma Aktiengesellschaft, priority 2014, published 2017).

Test system: rat hepatocytes
Assay: Hepatocyte assay for determination of metabolic stability
Format: in vitro ADME
Settings: after incubation with rat hepatocytes
Experimental: The metabolic stability of test compounds towards hepatocytes is determined by incubating the compounds at low concentrations (preferably below or around 1 μM) and at low cell counts (preferably at 1*10^6 cells/ml) in order to ensure maximum linearity of kinetic conditions in the experiment. Seven samples from the incubation solution are taken for the LC-MS analysis within a fixed time pattern, in order to determine the half-life (i.e. the degradation) of the particular compound. This half life is used to calculate various “Clearance” parameters (CL) and “Fmax” values (see below).
The CL and Fmax values are a measure of the phase 1 and phase 2 metabolism of the compounds in the hepatocytes. In order to minimize the influence of the organic solvent on the enzymes in the incubation batches, the concentration thereof is generally limited to 1% (acetonitrile) or 0.1% (DMSO).
For all species and breeds, a hepatocyte cell count in the liver of 1.1*10^8 cells/g of liver is expected.
The parameters calculated and the meanings thereof are: • Fmax well-stirred [%] maximum possible bioavailability after oral administration • Calculation: (1−CLblood well-stirred/QH)*100 • CLblood well-stirred [L/(h*kg)] calculated blood clearance (well-stirred model) • Calculation: (QH*CL′intrinsic)/(QH+CL′intrinsic) • CL′intrinsic[ml/(min*kg)] maximum ability of the liver (of the hepatocytes) to metabolize a compound (assuming that the liver blood flow is not rate-limiting) • Calculation: CL′intrinsic, apparent*species-specific hepatocyte count [1.1*10^8/g liver]*species-specific liver weight [g/kg] • CL′intrinsic, apparent[ml/(min*mg)] normalizes the elimination constant by dividing it by the hepatocyte cell count x used (x*10^6/ml) • Calculation: ke1[1/min]/(cell count [x*10^6]/incubation volume [ml]) • (QH=species-specific liver blood flow).

In the case of O=C(O)[C@H]1[C@H](Cn2nnc3ccc(C(F)(F)F)cc3c2=O)CC[C@@H]1C(=O)c1ccc(OCc2ccccc2)cc1 (racemic) [Example 11, (+/−)-(1RS,2RS,5SR)-2-[4-(Benzyloxy)benzoyl]-5-{[4-oxo-6-(trifluoromethyl)-1,2,3-benzotriazin-3(4H)-yl]methyl}cyclopentanecarboxylic acid], the “CLblood (calculated blood clearance, well-stirred)” value is reported as 18.7 mL/min/kg and the “Fmax (maximum possible bioavailability after oral administration, well-stirred)” value is reported as 73.3%.
